Experiments:
Assay type in all cases: in vivo, rat
[1] = system: orchiectomized (ORX) rats; test: Test Example 6: effect of oral administration on prostate, levator ani muscle and femoral bone mineral density in ORX rats; conditions: for Femoral bone mineral density / Weight of levator ani muscle / Weight of prostate: 7 days a week
Procedure: (§1) Testes were removed from 12-week-old male SD rats. Starting on the next day, the compound of Example 108 (30 mg/5 ml/kg) was orally administered once daily for four consecutive weeks on a 7-day-a-week basis. As a positive control, methyl testosterone (MT) (100 mg/5 ml/kg) was orally administered once daily on a continuous 7-day-a-week basis. The test compound was suspended in a 0.5% methyl cellulose solution used as a solvent and the suspension was used in the test. In an ORX control group, a 0.5% methyl cellulose solution (5 ml/kg) was administered. Rats which had been falsely operated on without orchiectomy were used as a sham control group. On the next day after final administration, the wet weights of the ventral prostate and levator ani muscle were measured and the right femoral bone mineral density was measured by DEXA (double energy X-ray absorption) to evaluate the in vivo efficacy of the compound of Example 108. The results are shown in Table 20 and in FIGS. 13 to 15.

[2] = system: orchiectomized (ORX) rats; test: Test Example 5: effect of oral administration on prostate, levator ani muscle and femoral bone mineral density in ORX rats
Procedure: Testes were removed from 12-week-old male SD rats. Starting on the next day, the compound of Example 1 (100 mg/10 ml/kg) was orally administered once daily for four consecutive weeks on a 5-day-a-week basis. As a positive control, testosterone propionate (TP) (10 mg/kg) was subcutaneously administered once daily on a continuous 5-day-a-week basis. The test compound was suspended in a 0.5% methyl cellulose solution used as a solvent whereas TP was dissolved in dimethyl sulfoxide and diluted 10-fold with olive oil for use in the test. In an ORX control group, dimethyl sulfoxide as diluted 10-fold with olive oil was used for the test. Rats which had been falsely operated on without orchiectomy were used as a sham control group. On the next day after final administration, the wet weights of the ventral prostate and levator ani muscle were measured and the right femoral bone mineral density was measured by DEXA (double energy X-ray absorption) to evaluate the in vivo efficacy of the compound of Example 1. The results are shown in Table 19 and in FIGS. 10 to 12.

[3] = system: orchiectomized (ORX) rats; test: Test Example 7: effect of oral administration on prostate, levator ani muscle and femoral bone mineral density in ORX rats; conditions: for Femoral bone mineral density / Weight of levator ani muscle / Weight of prostate: 7 days a week
Procedure: as §1, with “129” for “108”, “129.” for “108.”, “21” for “20”, “16” for “13”, “18.” for “15.”

[4] = system: orchiectomized (ORX) rats; test: Test Example 3: effect on prostate, levator ani muscle and femoral bone mineral density in ORX rats (subcutaneous); conditions: for Femoral bone mineral density / Weight of levator ani muscle / Weight of prostate: 5 days a week, 4 weeks
Procedure: (§2) Testes were removed from 12-week-old male SD rats. Starting on the next day, the compound of Example 12 or 65 (30 mg/kg) or DHT (0.1, 1, 10 mg/kg) was subcutaneously administered once daily for four consecutive weeks on a 5-day-a-week basis. The Example compounds and DHT were dissolved in dimethyl sulfoxide and diluted 10-fold with olive oil to prepare solutions with various concentrations for use in the test. In an ORX control group, dimethyl sulfoxide as diluted 10-fold with olive oil was used for the test. Rats which had been falsely operated on without orchiectomy were used as a sham control group. On the next day after final administration, the wet weights of the ventral prostate and levator ani muscle were measured and the right femoral bone mineral density was measured by DEXA (double energy X-ray absorption) to evaluate the in vivo efficacy of the compounds of Example 12 and 65.

[5] = system: orchiectomized (ORX) rats; test: Test Example 2: effect on prostate, levator ani muscle and femoral bone mineral density in ORX rats (subcutaneous); conditions: for Femoral bone mineral density / Weight of levator ani muscle / Weight of prostate: 5 days a week, 4 weeks
Procedure: as §2, with “1 (3, 10, 30” for “12 or 65 (30”, “compound” for “compounds”, “1.” for “12 and 65.”

[6] = system: orchiectomized (ORX) rats; test: Test Example 4: effect on prostate, levator ani muscle and femoral bone mineral density in ORX rats (subcutaneous)
Procedure: as §2, with “Example 113” for “Example 12”, “or 114” for “or 65”, “DHT (10” for “DHT (0.1, 1, 10”, “test. […]” for “test. Rats which had been falsely operated on without orchiectomy were used as a sham control group.”, “and 114.” for “and 65.”

[7] = 30 mg/kg orally once daily, 4 weeks
[8] = 10 mg/kg sc once daily, 5 days a week
[9] = 10 mg/kg sc once daily, 5 days a week, 4 weeks

CC(=O)Nc1ccc(C(=O)NCC(C)(C)[C@H]2Nc3ccc(C#N)cc3[C@H]3C=CC[C@H]32)cn1 (relative stereo) [Example 108, (3aR*,4S*,9bS*)-6-acetylamino-N-[2-(8-cyano-3a,4,5,9b-tetrahydro-3H-cyclopenta[c]quinolin-4-yl)-2-methyl-propyl]nicotinamide]
Prostate weight as % of the level of the sham control group ([1]; 30 mg/kg orally): about 70% | Femoral bone mineral density [1, 7]: 141 ± 6 mg/cm^2 | Weight of levator ani muscle [1, 7]: 61 ± 6 mg/100 g body weight | Weight of prostate [1, 7]: 67 ± 13 mg/100 g body weight

CCC(=O)O[C@H]1CC[C@H]2[C@@H]3CCC4=CC(=O)CC[C@]4(C)[C@H]3CC[C@]12C [TP, testosterone propionate, reference compound]
Prostate weight as % of the level of the sham control group ([2]; 10 mg/kg sc): about 125% | Femoral bone mineral density [2, 8]: 135 ± 8 mg/cm^2 | Weight of levator ani muscle [2, 8]: 88 ± 9 mg/100 g body weight | Weight of prostate [2, 8]: 204 ± 29 mg/100 g body weight

CC(=O)Nc1ccc(C(=O)NCC(C)[C@H]2Nc3ccc(C#N)cc3[C@H]3OCC[C@H]32)cc1 (relative stereo) [Example 129, (3aS*,4R*,9bS*)-4-acetylamino-N-[2-(8-cyano-2,3,3a,4,5,9b-hexahydro-furo[3,2-c]quinolin-4-yl)propyl]benzamide]
Prostate weight as % of the level of the sham control group ([3]; 30 mg/kg orally): about 85% | Femoral bone mineral density [3, 7]: 145 ± 5 mg/cm^2 | Weight of levator ani muscle [3, 7]: 66 ± 6 mg/100 g body weight | Weight of prostate [3, 7]: 109 ± 66 mg/100 g body weight

C[C@]12CCC(=O)C=C1CC[C@@H]1[C@@H]2CC[C@@]2(C)[C@H]1CC[C@]2(C)O [MT, methyl testosterone, reference compound]
Prostate weight as % of the level of the sham control group ([3]; 100 mg/kg orally): about 115% | Femoral bone mineral density ([3]; 100 mg/kg orally once daily): 149 ± 6 mg/cm^2 | Weight of levator ani muscle ([3]; 100 mg/kg orally once daily): 63 ± 5 mg/100 g body weight | Weight of prostate ([3]; 100 mg/kg orally once daily): 143 ± 63 mg/100 g body weight | Prostate weight as % of the level of the sham control group ([1]; 100 mg/kg orally): about 120% | Femoral bone mineral density ([1]; 100 mg/kg orally once daily): 146 ± 5 mg/cm^2 | Weight of levator ani muscle ([1]; 100 mg/kg orally once daily): 65 ± 8 mg/100 g body weight | Weight of prostate ([1]; 100 mg/kg orally once daily): 117 ± 18 mg/100 g body weight

CC(C)(CNC(=O)c1ccc(OC(F)(F)F)cc1)[C@H]1Nc2ccc([N+](=O)[O-])cc2[C@H]2OCC[C@H]21 (relative stereo) [Example 65, (3aS*,4S*,9bS*)-N-[2-methyl-2-(8-nitro-2,3,3a,4,5,9b-hexahydro-furo[3,2-c]quinolin-4-yl)propyl]-4-trifluoromethoxybenzamide]
Prostate weight as % of the level of the sham control group ([4]; 30 mg/kg sc): about 70% | Femoral bone mineral density ([4]; 30 mg/kg sc once daily): 120 ± 5 mg/cm^2 | Weight of levator ani muscle ([4]; 30 mg/kg sc once daily): 67 ± 6 mg/100 g body weight | Weight of prostate ([4]; 30 mg/kg sc once daily): 69 ± 10 mg/100 g body weight

C[C@]12CCC(=O)C[C@@H]1CC[C@@H]1[C@@H]2CC[C@]2(C)[C@@H](O)CC[C@@H]12 [DHT, Dihydrotestosterone, reference compound]
Femoral bone mineral density ([5]; 0.1 mg/kg sc once daily): 114 ± 6 mg/cm^2 | Weight of levator ani muscle ([5]; 0.1 mg/kg sc once daily): 39 ± 9 mg/100 g body weight | Weight of prostate ([5]; 0.1 mg/kg sc once daily): 38 ± 7 mg/100 g body weight | Femoral bone mineral density ([5]; 1 mg/kg sc once daily): 115 ± 4 mg/cm^2 | Weight of levator ani muscle ([5]; 1 mg/kg sc once daily): 58 ± 5 mg/100 g body weight | Weight of prostate ([5]; 1 mg/kg sc once daily): 100 ± 9 mg/100 g body weight | Prostate weight as % of the level of the sham control group ([5]; 10 mg/kg sc): about 160% | Femoral bone mineral density ([5]; 10 mg/kg sc once daily): 122 ± 3 mg/cm^2 | Weight of levator ani muscle ([5]; 10 mg/kg sc once daily): 78 ± 6 mg/100 g body weight | Weight of prostate ([5]; 10 mg/kg sc once daily): 166 ± 26 mg/100 g body weight | Femoral bone mineral density ([4]; 0.1 mg/kg sc once daily): 114 ± 6 mg/cm^2 | Weight of levator ani muscle ([4]; 0.1 mg/kg sc once daily): 37 ± 6 mg/100 g body weight | Weight of prostate ([4]; 0.1 mg/kg sc once daily): 34 ± 11 mg/100 g body weight | Femoral bone mineral density ([4]; 1 mg/kg sc once daily): 115 ± 4 mg/cm^2 | Weight of levator ani muscle ([4]; 1 mg/kg sc once daily): 47 ± 3 mg/100 g body weight | Weight of prostate ([4]; 1 mg/kg sc once daily): 81 ± 15 mg/100 g body weight | Prostate weight as % of the level of the sham control group ([4]; 10 mg/kg sc): about 145% | Femoral bone mineral density ([4]; 10 mg/kg sc once daily): 122 ± 3 mg/cm^2 | Weight of levator ani muscle ([4]; 10 mg/kg sc once daily): 80 ± 5 mg/100 g body weight | Weight of prostate ([4]; 10 mg/kg sc once daily): 146 ± 16 mg/100 g body weight | Prostate weight as % of the level of the sham control group ([6]; 10 mg/kg sc): about 140% | Femoral bone mineral density [6, 9]: 148 ± 5 mg/cm^2 | Weight of levator ani muscle [6, 9]: 89 ± 7 mg/100 g body weight | Weight of prostate [6, 9]: 199 ± 27 mg/100 g body weight
